The source made the active and inactive calls.
Experiments:
[1] = molecular target: T1, Heat shock factor protein 1 (Mus musculus, UniProt P38532); test: HSF1 potentiators in luciferase reporter cells, confirmation, cell-based, NIH3T3, luminescence, dose retest (AID 435004); type: functional;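 further: stress induced by proteasome inhibitor MG132 added 30 min after compound; luciferase reporter driven by HSF1 response element in NIH3T3 cells; actives raise luminescence as potentiators of the MG132 stress response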
T1 sequence (P38532 whole entry): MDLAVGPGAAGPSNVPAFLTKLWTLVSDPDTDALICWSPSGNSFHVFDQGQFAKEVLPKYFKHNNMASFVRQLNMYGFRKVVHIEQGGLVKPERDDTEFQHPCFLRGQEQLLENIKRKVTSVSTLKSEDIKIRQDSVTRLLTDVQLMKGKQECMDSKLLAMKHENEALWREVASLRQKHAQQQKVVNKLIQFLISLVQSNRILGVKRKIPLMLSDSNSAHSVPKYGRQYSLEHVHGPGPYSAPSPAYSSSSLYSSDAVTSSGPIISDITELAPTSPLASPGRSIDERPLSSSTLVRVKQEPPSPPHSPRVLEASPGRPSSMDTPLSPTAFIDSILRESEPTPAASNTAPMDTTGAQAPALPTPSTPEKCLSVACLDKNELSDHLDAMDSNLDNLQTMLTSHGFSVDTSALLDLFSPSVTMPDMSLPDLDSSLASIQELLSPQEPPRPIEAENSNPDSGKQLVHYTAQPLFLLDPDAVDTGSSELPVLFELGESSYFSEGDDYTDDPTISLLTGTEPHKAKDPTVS

[2] = cells; type: functional
[3] = molecular target: Cytochrome P450 2C9 (Homo sapiens, UniProt P11712)
[4] = molecular target: Cytochrome P450 2C19 (Homo sapiens, UniProt P33261); test: Cytochrome panel assay with activity outcomes. Panel member name: p450-cyp2c19 Compounds with AC50 equal or less than 10 uM are considered active; type: functional
[5] = molecular target: Genome polyprotein (dengue virus type 2, UniProt P29990); test: Dengue-2 NS5 methyltransferase inhibitors, primary screen, biochemical, confirmation dose response (AID 588689); type: functional
[6] = cells; type: functional, cell-based
[7] = test system: BJ; test: cytotoxicity toward BJ-TERT-LT-ST fibroblasts, dose response, cell-based, RAS-independent, luminescence (AID 1935); type: functional; conditions: Homo sapiens;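 further: BJ fibroblasts immortalized with TERT plus LT and ST oncogenes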
[8] = cytotoxicity toward DRD oncogenic fibroblasts, dose response, cell-based, non-viral oncogenic, luminescence (AID 1934); type: functional; conditions: Homo sapiens
[9] = Luminescence Cell-Based Dose Confirmation HTS to Identify Inhibitors of Platelet Dense Granule Release. [Related pubchem assays: 1663 (Primary HTS), 1678 (Summary of Project)]; type: functional
[10] = molecular target: Luciferin 4-monooxygenase (Photinus pyralis, UniProt P08659); test: firefly luciferase enzyme inhibitors, dose response, biochemical, luminescence (AID 1891)
[11] = test system: BJ; test: cells; type: functional, cell-based; conditions: Homo sapiens
[12] = cells; type: functional, cell-based; remark: listed apart in the source
[13] = test system: BJ; test: cytotoxicity toward BJ-TERT fibroblasts, dose response, cell-based, RAS-independent, luminescence (AID 1933); type: functional; conditions: Homo sapiens
[14] = Shn3 3'UTR reporter inhibitors, dose response, cell-based, Clone20 osteoblasts, firefly luciferase, cherry-picked (AID 624132); type: functional;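 further: firefly luciferase luminescence from reporter carrying the Shn3 3'UTR in osteoblasts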
[15] = molecular target: Large T antigen (Simian virus 40, UniProt P03070); type: functional, Betapolyomavirus macacae;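 further: Confirmatory-stage PubChem screen for compounds that inhibit SV40 T antigen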
[16] = molecular target: T2, Rac GTPase-activating protein 1 (Homo sapiens, UniProt Q9H0H5); test: MgcRacGAP GTPase-activating activity inhibitors, confirmation, biochemical, ADP Hunter fluorescence, primary and confirmatory (AID 624330); type: functional
T2 sequence (Q9H0H5 whole entry): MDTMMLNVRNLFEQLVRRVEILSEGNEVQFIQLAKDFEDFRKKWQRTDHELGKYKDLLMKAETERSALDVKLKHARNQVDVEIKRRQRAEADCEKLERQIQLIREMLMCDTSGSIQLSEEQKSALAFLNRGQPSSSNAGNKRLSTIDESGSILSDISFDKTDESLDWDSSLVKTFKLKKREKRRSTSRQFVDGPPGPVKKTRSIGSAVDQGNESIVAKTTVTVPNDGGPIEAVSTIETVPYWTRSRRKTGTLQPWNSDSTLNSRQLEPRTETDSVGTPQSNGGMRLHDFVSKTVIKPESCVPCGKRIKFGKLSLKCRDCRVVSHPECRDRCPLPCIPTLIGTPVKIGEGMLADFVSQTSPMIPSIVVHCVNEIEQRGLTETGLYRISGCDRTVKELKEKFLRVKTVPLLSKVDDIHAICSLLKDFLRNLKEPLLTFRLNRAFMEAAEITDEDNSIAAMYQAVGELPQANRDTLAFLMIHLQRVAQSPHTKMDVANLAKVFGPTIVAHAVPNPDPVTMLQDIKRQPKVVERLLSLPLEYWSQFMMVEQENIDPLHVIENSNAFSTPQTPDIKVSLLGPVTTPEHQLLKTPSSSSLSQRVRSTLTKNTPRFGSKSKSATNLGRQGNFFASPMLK

[17] = NIH-3T3 fibroblast cytotoxicity, dose response, cytotoxicity control, cell-based, fluorescence, Alamar Blue, secondary assay (AID 2327); type: functional;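 further: NIH-3T3 mouse fibroblasts cultured with fluconazole at 8 µg/mL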
[18] = molecular target: Nonstructural protein 1 (Influenza A virus, UniProt Q194T2); type: functional, Influenza A virus (A/California/07/2009(H1N1))
[19] = C. albicans growth with fluconazole, confirmation, fluorescence, retest (AID 2467); type: functional, cell-based
[20] = molecular target: FAD-linked sulfhydryl oxidase ALR (Homo sapiens, UniProt P55789); test: inhibitors of human ALR sulfhydryl oxidase, dose response, biochemical, H2O2 detection, luminescence, cherry-pick (AID 493248)
[21] = molecular target: T3, Zinc finger protein mex-5 (Caenorhabditis elegans, UniProt Q9XUB2); test: MEX-5/TCR-2 RNA interaction inhibitors, dose response, biochemical, C. elegans, fluorescence polarization (AID 1960)
T3 sequence (Q9XUB2 whole entry): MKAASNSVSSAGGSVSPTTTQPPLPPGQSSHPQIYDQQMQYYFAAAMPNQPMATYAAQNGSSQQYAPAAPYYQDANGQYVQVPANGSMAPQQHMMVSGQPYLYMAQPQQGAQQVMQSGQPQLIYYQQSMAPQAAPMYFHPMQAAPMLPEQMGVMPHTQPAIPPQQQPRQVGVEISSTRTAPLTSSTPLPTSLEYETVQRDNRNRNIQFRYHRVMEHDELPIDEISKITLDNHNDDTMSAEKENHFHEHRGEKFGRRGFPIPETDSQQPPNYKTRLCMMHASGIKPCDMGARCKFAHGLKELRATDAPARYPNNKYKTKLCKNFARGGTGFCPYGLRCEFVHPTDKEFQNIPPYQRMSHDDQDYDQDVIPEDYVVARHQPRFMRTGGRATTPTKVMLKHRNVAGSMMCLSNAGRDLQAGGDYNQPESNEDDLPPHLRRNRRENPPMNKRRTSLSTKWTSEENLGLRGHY

[22] = molecular target: T4, Corticotropin-releasing factor receptor 2/Corticotropin-releasing factor-binding protein (Homo sapiens, UniProt P24387+Q13324); test: activators of CRF receptor 2 with binding protein – uHTS hits, confirmation (AID 602473); type: functional; conditions: read-out: EC50_Mean
T4 sequence (Q13324 whole entry): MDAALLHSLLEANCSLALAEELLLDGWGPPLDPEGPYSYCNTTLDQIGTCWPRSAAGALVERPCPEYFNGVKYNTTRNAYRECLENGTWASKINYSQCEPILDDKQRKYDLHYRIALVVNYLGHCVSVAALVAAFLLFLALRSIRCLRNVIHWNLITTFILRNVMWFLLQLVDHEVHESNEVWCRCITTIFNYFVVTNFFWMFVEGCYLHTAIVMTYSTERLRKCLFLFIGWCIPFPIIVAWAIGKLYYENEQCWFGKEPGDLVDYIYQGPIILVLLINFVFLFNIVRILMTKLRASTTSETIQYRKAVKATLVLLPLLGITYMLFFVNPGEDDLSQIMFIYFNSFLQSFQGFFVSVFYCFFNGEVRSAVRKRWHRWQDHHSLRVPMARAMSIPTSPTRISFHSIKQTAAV
T4 sequence (P24387 whole entry): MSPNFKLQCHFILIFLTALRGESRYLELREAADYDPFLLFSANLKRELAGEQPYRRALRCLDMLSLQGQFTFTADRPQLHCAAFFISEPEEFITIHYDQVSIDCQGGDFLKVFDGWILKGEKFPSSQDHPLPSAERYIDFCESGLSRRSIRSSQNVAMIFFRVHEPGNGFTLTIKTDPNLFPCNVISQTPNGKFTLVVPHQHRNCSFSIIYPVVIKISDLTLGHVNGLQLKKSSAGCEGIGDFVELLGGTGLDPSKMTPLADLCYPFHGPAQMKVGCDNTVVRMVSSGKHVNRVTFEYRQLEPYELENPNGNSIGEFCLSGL

[23] = molecular target: T5, RNA-binding protein pos-1 (Caenorhabditis elegans, UniProt G5EF15); test: inhibitors of POS-1/mex-3 RNA binding, dose response, biochemical, fluorescence polarization (AID 1964);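 further: purified POS-1 fused to maltose binding protein made in E. coli; potency of compounds blocking POS-1 binding to fluorescent RNA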
T5 sequence (G5EF15 whole entry): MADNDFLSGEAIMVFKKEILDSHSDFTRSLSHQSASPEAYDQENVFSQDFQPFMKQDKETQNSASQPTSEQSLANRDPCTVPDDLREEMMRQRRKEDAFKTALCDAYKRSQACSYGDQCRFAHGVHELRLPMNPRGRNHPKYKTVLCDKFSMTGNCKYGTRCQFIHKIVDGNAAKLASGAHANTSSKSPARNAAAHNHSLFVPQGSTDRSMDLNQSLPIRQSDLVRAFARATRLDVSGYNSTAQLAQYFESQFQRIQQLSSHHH

Chain of Large T antigen (P03070 whole entry): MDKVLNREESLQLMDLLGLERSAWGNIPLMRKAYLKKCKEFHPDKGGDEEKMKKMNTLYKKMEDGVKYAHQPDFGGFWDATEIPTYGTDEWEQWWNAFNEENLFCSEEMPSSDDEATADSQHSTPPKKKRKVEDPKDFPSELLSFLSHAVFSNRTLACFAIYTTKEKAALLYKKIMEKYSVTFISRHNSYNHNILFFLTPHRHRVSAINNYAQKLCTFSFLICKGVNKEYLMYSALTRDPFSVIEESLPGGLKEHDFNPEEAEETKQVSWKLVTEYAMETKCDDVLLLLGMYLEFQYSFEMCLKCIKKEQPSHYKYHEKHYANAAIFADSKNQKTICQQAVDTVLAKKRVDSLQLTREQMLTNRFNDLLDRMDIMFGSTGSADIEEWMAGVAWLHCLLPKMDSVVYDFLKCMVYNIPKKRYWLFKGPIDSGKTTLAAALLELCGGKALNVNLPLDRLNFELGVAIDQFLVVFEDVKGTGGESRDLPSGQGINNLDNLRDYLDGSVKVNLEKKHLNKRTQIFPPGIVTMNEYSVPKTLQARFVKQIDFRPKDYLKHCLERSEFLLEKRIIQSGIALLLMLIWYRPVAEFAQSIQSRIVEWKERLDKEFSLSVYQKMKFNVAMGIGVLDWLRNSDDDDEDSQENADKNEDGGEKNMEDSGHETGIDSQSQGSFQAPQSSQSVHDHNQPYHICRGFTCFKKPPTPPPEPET
Chain of FAD-linked sulfhydryl oxidase ALR (P55789 whole entry): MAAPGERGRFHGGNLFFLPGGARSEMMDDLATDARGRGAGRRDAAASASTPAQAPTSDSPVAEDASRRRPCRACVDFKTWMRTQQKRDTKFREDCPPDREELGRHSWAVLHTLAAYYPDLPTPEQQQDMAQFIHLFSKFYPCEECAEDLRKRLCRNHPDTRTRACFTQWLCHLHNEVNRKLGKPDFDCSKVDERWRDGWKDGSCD
Chain of Genome polyprotein (P29990 2492-3391 limits assumed): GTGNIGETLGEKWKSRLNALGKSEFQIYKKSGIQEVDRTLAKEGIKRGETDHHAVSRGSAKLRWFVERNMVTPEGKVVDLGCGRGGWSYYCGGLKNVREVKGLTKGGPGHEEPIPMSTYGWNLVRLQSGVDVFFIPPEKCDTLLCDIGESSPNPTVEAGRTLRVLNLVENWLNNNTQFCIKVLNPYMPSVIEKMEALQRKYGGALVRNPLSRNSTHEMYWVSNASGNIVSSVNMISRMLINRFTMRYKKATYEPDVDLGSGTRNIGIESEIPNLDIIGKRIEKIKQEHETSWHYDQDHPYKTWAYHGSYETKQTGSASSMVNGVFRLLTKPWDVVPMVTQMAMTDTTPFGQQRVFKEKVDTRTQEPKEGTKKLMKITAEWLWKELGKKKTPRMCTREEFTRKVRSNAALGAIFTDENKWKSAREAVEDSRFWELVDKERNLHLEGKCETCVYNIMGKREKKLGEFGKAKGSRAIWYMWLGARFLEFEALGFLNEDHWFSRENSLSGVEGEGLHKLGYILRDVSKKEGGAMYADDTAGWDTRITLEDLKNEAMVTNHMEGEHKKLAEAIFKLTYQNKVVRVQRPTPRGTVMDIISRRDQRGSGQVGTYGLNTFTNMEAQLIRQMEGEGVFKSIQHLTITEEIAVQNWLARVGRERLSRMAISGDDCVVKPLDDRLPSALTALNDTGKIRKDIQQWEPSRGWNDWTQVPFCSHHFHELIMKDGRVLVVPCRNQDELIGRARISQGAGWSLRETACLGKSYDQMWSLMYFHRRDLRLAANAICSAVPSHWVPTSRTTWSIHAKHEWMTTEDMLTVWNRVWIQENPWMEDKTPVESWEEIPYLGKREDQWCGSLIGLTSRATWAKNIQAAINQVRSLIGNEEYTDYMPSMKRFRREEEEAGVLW
Chain of Cytochrome P450 2C9 (P11712 whole entry): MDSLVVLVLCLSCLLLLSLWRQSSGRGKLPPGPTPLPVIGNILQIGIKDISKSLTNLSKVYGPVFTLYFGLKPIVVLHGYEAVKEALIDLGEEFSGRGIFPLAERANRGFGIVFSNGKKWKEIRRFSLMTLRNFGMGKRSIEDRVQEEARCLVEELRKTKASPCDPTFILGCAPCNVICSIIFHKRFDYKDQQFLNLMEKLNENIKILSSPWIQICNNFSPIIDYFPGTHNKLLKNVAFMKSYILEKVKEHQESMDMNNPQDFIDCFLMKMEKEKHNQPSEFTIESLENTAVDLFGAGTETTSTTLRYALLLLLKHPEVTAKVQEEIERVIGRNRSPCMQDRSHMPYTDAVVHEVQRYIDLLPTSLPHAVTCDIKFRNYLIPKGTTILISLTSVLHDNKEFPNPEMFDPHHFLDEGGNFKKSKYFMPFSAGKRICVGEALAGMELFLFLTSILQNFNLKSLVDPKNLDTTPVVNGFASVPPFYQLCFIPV
Chain of Luciferin 4-monooxygenase (P08659 whole entry): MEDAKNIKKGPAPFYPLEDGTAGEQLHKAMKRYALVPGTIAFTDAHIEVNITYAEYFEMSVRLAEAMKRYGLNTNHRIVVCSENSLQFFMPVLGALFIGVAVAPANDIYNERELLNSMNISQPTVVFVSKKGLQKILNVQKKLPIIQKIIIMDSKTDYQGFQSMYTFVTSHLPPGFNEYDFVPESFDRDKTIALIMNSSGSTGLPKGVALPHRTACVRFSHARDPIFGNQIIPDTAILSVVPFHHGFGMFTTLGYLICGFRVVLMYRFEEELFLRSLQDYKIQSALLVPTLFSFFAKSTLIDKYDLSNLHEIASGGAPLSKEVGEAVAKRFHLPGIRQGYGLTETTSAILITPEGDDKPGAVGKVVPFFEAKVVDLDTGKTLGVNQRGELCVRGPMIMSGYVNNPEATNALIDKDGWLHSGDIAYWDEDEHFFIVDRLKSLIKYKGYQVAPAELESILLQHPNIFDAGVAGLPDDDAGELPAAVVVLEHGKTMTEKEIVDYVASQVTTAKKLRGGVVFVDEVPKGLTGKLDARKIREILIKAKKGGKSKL
Chain of Cytochrome P450 2C19 (P33261 whole entry): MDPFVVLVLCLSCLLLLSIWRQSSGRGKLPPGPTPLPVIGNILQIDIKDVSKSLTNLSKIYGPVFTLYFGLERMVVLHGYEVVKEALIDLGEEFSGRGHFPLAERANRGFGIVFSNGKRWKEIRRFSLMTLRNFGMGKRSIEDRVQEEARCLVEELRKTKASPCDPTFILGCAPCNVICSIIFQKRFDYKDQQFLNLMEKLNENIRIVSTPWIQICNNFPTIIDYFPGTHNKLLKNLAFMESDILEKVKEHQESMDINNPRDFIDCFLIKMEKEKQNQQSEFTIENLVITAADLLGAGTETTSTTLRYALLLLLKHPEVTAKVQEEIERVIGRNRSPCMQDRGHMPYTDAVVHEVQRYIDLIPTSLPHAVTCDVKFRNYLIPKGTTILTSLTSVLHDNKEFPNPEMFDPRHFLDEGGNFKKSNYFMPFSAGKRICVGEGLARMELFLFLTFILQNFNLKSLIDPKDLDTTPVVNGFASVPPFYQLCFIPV
Chain of Nonstructural protein 1 (Q194T2 whole entry): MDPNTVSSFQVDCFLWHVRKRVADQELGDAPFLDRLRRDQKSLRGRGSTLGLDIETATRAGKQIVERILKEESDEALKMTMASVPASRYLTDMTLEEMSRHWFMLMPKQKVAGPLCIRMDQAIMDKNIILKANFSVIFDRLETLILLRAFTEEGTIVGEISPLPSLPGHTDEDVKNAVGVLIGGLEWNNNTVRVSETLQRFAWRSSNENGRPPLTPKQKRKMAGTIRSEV

SMILES: CCOC(=O)C(C)Oc1cc(Cl)c(C=O)cc1OC (stereo not drawn)
- EC50 [1]: > 260 µM (inactive)
- IC50 [2]: 24.4 µM (active)

SMILES: O=C(CN1CCCCC1)Nc1nnc(-c2ccc([N+](=O)[O-])cc2)s1
- IC50 [2]: 29.9 µM (active)
- AC50 [3]: 17.8 µM (inconclusive)
- AC50 [4]: inconclusive

SMILES: CCOc1ccc(C(c2c(O)n(C)c(SC)nc2=O)c2c(O)n(C)c(SC)nc2=O)cc1
- IC50 [5]: 43 µM (active)

SMILES: Fc1cccc(/C=N/Nc2nccnc2Cl)c1
- EC50 [6]: 7.47 µM (active)
- EC50 [7]: > 75 µM (inconclusive)
- EC50 [8]: 11.3 µM (active)
- EC50 [9]: 2.26 µM (active)
- EC50 [10]: 3.81 µM (active)
- EC50 [11]: 11 µM (active)
- EC50 [12]: > 350 µM (not active)
- EC50 [13]: 11.9 µM (active)

SMILES: O=C(COc1ccc(Cl)cc1)Nc1ccc(Cl)cn1
- IC50 [2]: 30.3 µM (active)

SMILES: COc1ccc(C2(O)CCN(CCCCOc3ccccc3)CC2)cc1
- IC50 [2]: 32.8 µM (active)

SMILES: CCn1c(-c2ccco2)nc2ccccc21
- IC50 [2]: > 50 µM (active)

SMILES: COC(=O)[C@@]12CCCN1[C@H](c1ccc(-c3ccc(OC)cc3)cc1)[C@@H]1C(=O)N(C)C(=O)[C@@H]12
- AC50 [14]: 38.9 µM (active)

SMILES: CN=C(S)Nc1ccc(Nc2ccccc2)cc1
- IC50 [15]: 12.3 µM (active)
- IC50 [16]: 64.6 µM (active)

SMILES: Cc1ccnc(NC(c2cccnc2)c2ccc3cccnc3c2O)c1 (stereo not drawn)
- EC50 [6]: > 350 µM (not active)
- EC50 [17]: 46.7 µM (active)
- IC50 [18]: 8.52 µM (active)
- EC50 [19]: > 38 µM (not active)
- EC50 [12]: 200 µM (active)

SMILES: Cc1c(C)n(Cc2ccccc2)c2ncnc(NN)c12
- IC50 [15]: > 100 µM (active)

SMILES: COc1cc(/C=N\NC(=O)CC(=O)NCCc2ccccc2)ccc1O
- AC50 [20]: 1.7 µM (active)
- IC50 [15]: 7.57 µM (active)
- IC50 [16]: 27.4 µM (active)

SMILES: CCOc1ccc(-c2nn(-c3ccccc3)cc2/C=C2\SC(=S)N(C3CCS(=O)(=O)C3)C2=O)cc1 (stereo not drawn)
- EC50 [21]: > 300 µM (not active)
- EC50 [22]: 13.1 µM (active)
- EC50 [23]: > 300 µM (not active)

SMILES: N=C1/C(=C\c2ccc(O)cc2)C(=O)N=C2SC(CC(=O)N3CCCCC3)=NN12
- IC50 [15]: 14.2 µM (active)

— ChEMBL document CHEMBL1201862, “PubChem BioAssay data set” (2004)
